The values that follow come from article PMC6278366, “Synthesis and Evaluation of Anticancer Activities of Novel C-28 Guanidine-Functionalized Triterpene Acid Derivatives” (Molecules, 2018).

Where a name gives a salt, the structure may show the parent alone.

For test [1], the system named is Jurkat (T-lymphoblastic leukemia) cells. The test can be described thus: cells. Particulars: Homo sapiens, Jurkat, mean ± SE, at least three experiments in duplicate; viable cells; read-out: IC50 Jurkat. The class given is cell-based. Put shortly: (§1)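 Suspension lines in RPMI 1640 with 10% FBS at 37 °C, 5% CO2, treated with compounds at 1, 5, 10, 15, 30 and 60 μM. Live/dead status by 7-AAD staining (15 min, room temperature, dark) read on flow cytometer, 488 nm excitation, 675/30 nm emission.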

Test [2] deals with K562 (chronic myeloid leukemia) cells. In words: Cytotoxicity assay (7-AAD viability, flow cytometry), K562. It counts as cell-based, human. The conditions noted are these: Homo sapiens, K562, mean ± SE, at least three experiments in duplicate; viable cells; read-out: IC50 K562. Put shortly:
as §1
Background: A flow cytometer gives signals particle by particle.

Test [3] deals with HEK293 (embryonic kidney) cells. In words: Cytotoxicity assay (7-AAD viability, flow cytometry), HEK293. The conditions noted are these: Homo sapiens, HEK293, mean ± SE, at least three experiments in duplicate; viable cells. It counts as cell-based, human. Put shortly: (§2)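 Adherent HeLa, HEK293 and normal human fibroblasts (5 × 10⁴/well, DMEM with 10% FBS, 37 °C, 5% CO2) were treated with compounds at 1, 5, 10, 15, 30 and 60 μM. Viability was read as 7-AAD exclusion by flow cytometry after 15 min staining.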

For test [4], the system named is HeLa (cervical cancer) cells. In words: Cytotoxicity assay (7-AAD viability, flow cytometry), HeLa. The class given is cell-based, human. Particulars: Homo sapiens, HeLa, mean ± SE, at least three experiments in duplicate; viable cells. Put shortly: as §2

On to `CC(=O)O[C@H]1CC[C@@]2(C)C(CC[C@]3(C)C2CCC2C4C(C(C)C)CC[C@]4(C(=O)OCC(N)(CO)CO)CC[C@]23C)C1(C)C` (stereo partly drawn) [Compound 15, 3β-[2-Amino-3-hydroxy-2-(hydroxymethyl)propyl]-3-O-acetyl-lupane-28-oate], for which the IC50 was 3.3 ± 0.11 µM in test [1], 2.1 ± 0.13 µM in test [2], 17 ± 0.25 µM in test [3] and 19 ± 0.49 µM in test [4].

With `CC(=O)O[C@H]1CC[C@@]2(C)C(CC[C@]3(C)C2CCC2C4C(C(C)C)CC[C@]4(C(=O)OCC(CO)(CO)NC(=N)N)CC[C@]23C)C1(C)C` (stereo partly drawn) [Compound 15c, 3β-[2-Guanidine-3-hydroxy-2-(hydroxymethyl)propyl]-3-O-acetyl-lupane-28-oate hydrochloride], the half-inhibitory concentration (IC50) amounted to 3.1 ± 0.41 µM in test [1], 2.3 ± 0.34 µM in test [2], 16 ± 0.27 µM in test [3] and 14 ± 0.31 µM in test [4].

As a reminder, the IC50 is the concentration that gives 50% inhibition.
